Data published in ChEMBL document CHEMBL1221190, “Therapeutic intervention based on protein prenylation and associated modifications” (Nat Chem Biol, 2006).

Key:
[1] = Inhibition of GGTase1
[2] = Selectivity ratio of IC50 for farnesyltransferase to IC50 for GGTase1

IC50 [1]: 8 nM
Ratio IC50 [2]: 250
SMILES: CSCCc1c(-c2cccnc2)nn(-c2ccc(Cl)c(Cl)c2)c1OCCCC(=O)N[C@@H](Cc1ccccc1)C(N)=O
